Patent publication US20260184675A1, “CHIRAL ISOMERIC SULFITE COMPOUND AND APPLICATION THEREOF” (Chengdu Hanova BioSciences Co., Ltd, priority 2024, published 2026)

Tests used:
Type in all cases: in vivo
eggs of Aleyrodidae = assay: Effect on hatching of eggs of Aleyrodidae, leaf disc method; details: 10 ppm; for Hatching rate (%), Replicate 1 / Hatching rate (%), Replicate 2 / Hatching rate (%), Replicate 3 / Number of hatched larvae 5 days after insecticide delivery, Replicate 1 / Number of hatched larvae 5 days after insecticide delivery, Replicate 2 / Number of hatched larvae 5 days after insecticide delivery, Replicate 3: Aleyrodidae eggs; for Hatching rate (%), Replicate 1 / Hatching rate (%), Replicate 2 / Hatching rate (%), Replicate 3: 5 days after delivery; for Number of hatched larvae 5 days after insecticide delivery, Replicate 1 / Number of hatched larvae 5 days after insecticide delivery, Replicate 2 / Number of hatched larvae 5 days after insecticide delivery, Replicate 3: leaf disc
Procedure, shortened: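 Leaf discs carrying Aleyrodidae eggs were first examined microscopically to record a baseline egg count. They were then dipped for 10 seconds in compound solution at 10 ppm or in clear water, taken out, and incubated with humidity maintained. Five days after delivery, the number of hatched larvae was recorded to assess hatching inhibition.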

[1] = system: eggs of Harmonia axyridis; assay: Effect on hatching of eggs of Harmonia axyridis, egg card immersion; details: 100 ppm; for Number of hatched larvae 4 days after insecticide delivery, Replicate 1 / Number of hatched larvae 4 days after insecticide delivery, Replicate 2 / Number of hatched larvae 4 days after insecticide delivery, Replicate 3: Harmonia axyridis egg cards, immersed 30 seconds; for Hatching rate (%), Replicate 1 / Hatching rate (%), Replicate 2 / Hatching rate (%), Replicate 3: Harmonia axyridis eggs, 4 days after delivery
Procedure, shortened: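 Egg cards (~20 eggs each) dipped 30 s in 100 ppm insecticide, air dried and kept moist at 27° C; 5 cards per treatment, 3 replicates. Hatching assessed 4 days after treatment against pre-treatment egg counts, and control effect calculated by formula.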

[2] = system: pest eggs of Tetranychus cinnabarinus; assay: Effect on hatching of pest eggs of Tetranychus cinnabarinus, leaf disc method; details: for Hatching rate (%): 7 days after insecticide delivery
Procedure, shortened: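 Adult female mites laid eggs on 2.0 cm Vicia faba leaf discs for up to 36 h; discs with counted eggs were dipped 10 s in compound solution or water, then kept moist. Hatched eggs were counted 7 days after treatment and control effect was calculated by formula.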

| SMILES | Hatching rate (%), Replicate 1 (eggs of Aleyrodidae) [%] | Hatching rate (%), Replicate 2 (eggs of Aleyrodidae) [%] | Hatching rate (%), Replicate 3 (eggs of Aleyrodidae) [%] | Number of hatched larvae 5 days after insecticide delivery, Replicate 1 (eggs of Aleyrodidae) | Number of hatched larvae 5 days after insecticide delivery, Replicate 2 (eggs of Aleyrodidae) | Number of hatched larvae 5 days after insecticide delivery, Replicate 3 (eggs of Aleyrodidae) | Number of hatched larvae 4 days after insecticide delivery, Replicate 1 [1] | Number of hatched larvae 4 days after insecticide delivery, Replicate 2 [1] | Number of hatched larvae 4 days after insecticide delivery, Replicate 3 [1] | Hatching rate (%), Replicate 1 [1] [%] | Hatching rate (%), Replicate 2 [1] [%] | Hatching rate (%), Replicate 3 [1] [%] | Hatching rate (%) ([2]; 0.25 mg/L, Replicate 1) | Hatching rate (%) ([2]; 0.25 mg/L, Replicate 2) | Number of hatched larvae 7 days after insecticide delivery ([2]; 0.25 mg/L, Replicate 1) | Number of hatched larvae 7 days after insecticide delivery ([2]; 0.25 mg/L, Replicate 2) | Hatching rate (%) ([2]; 0.5 mg/L, Replicate 1) | Hatching rate (%) ([2]; 0.5 mg/L, Replicate 2) | Number of hatched larvae 7 days after insecticide delivery ([2]; 0.5 mg/L, Replicate 1) | Number of hatched larvae 7 days after insecticide delivery ([2]; 0.5 mg/L, Replicate 2) | other results |
| --- | --- | --- | --- | --- | --- | --- | --- | --- | --- | --- | --- | --- | --- | --- | --- | --- | --- | --- | --- | --- | --- |
| CC(C)(COS(=O)OCCF)Oc1ccc(Cl)cc1Cl (stereo not drawn) [R-10′] | 9.77 | 10.23 | 10.16 | 13 | 9 | 13 | 17 | 14 | 12 | 12.78 | 13.73 | 12.77 | 74.07 | 76.79 | 21 | 13 | 42.86 | 45.07 | 36 | 39 | Hatching rate (%) ([2]; 1 mg/L, Replicate 1): 8.47%; Hatching rate (%) ([2]; 1 mg/L, Replicate 2): 7.46%; Number of hatched larvae 7 days after insecticide delivery ([2]; 1 mg/L, Replicate 1): 54; Number of hatched larvae 7 days after insecticide delivery ([2]; 1 mg/L, Replicate 2): 62 |
| CC(C)(COS(=O)OCCF)Oc1ccc(Cl)cc1Cl (stereo not drawn) [S-10′] | 0.00 | 0.00 | 0.00 | 0 | 0 | 0 | 0 | 0 | 0 | 0.00 | 0.00 | 0.00 | 42.11 | 43.77 | 44 | 37 | 7.95 | 6.12 | 81 | 46 | inhibitory activity on the hatching of eggs of Aleyrodidae (in words) (eggs of Aleyrodidae): strong inhibitory activities; inhibitory activity on the hatching of eggs of Harmonia axyridis (in words) [1]: strong inhibitory activities; Hatching rate (%) ([2]; 1 mg/L, Replicate 1): 0.00%; Hatching rate (%) ([2]; 1 mg/L, Replicate 2): 0.00%; Number of hatched larvae 7 days after insecticide delivery ([2]; 1 mg/L, Replicate 1): 59; Number of hatched larvae 7 days after insecticide delivery ([2]; 1 mg/L, Replicate 2): 84; inhibitory effect on the hatching of pest eggs of Tetranychus cinnabarinus (in words) ([2]; 1 ppm): excellent inhibitory effects |
